Measurements taken from paper PMC4858680, “A platinum-based hybrid drug design approach to circumvent acquired resistance to molecular targeted tyrosine kinase inhibitors” (Scientific Reports, 2016).

Key:
[1] = Chemical stability of the hybrid compounds; conditions: saline, phosphate buffered solution (pH 4 and 7.4), culture medium with 5 mM glutathione
SYK = SYK (Homo sapiens, UniProt P43405); conditions: 10 μM
H1975 = assay: Anticancer activity (cytotoxicity) in NSCLC cell line; assay type: cell-based; conditions: Homo sapiens, NCI-H1975, read-out: Anticancer activity (IC50) H1975
EPHB4 = biological target: T1, EPHB4 (Homo sapiens, UniProt P54760); assay: biochemical; conditions: read-out: Percent control
T1 sequence (P54760 16-987): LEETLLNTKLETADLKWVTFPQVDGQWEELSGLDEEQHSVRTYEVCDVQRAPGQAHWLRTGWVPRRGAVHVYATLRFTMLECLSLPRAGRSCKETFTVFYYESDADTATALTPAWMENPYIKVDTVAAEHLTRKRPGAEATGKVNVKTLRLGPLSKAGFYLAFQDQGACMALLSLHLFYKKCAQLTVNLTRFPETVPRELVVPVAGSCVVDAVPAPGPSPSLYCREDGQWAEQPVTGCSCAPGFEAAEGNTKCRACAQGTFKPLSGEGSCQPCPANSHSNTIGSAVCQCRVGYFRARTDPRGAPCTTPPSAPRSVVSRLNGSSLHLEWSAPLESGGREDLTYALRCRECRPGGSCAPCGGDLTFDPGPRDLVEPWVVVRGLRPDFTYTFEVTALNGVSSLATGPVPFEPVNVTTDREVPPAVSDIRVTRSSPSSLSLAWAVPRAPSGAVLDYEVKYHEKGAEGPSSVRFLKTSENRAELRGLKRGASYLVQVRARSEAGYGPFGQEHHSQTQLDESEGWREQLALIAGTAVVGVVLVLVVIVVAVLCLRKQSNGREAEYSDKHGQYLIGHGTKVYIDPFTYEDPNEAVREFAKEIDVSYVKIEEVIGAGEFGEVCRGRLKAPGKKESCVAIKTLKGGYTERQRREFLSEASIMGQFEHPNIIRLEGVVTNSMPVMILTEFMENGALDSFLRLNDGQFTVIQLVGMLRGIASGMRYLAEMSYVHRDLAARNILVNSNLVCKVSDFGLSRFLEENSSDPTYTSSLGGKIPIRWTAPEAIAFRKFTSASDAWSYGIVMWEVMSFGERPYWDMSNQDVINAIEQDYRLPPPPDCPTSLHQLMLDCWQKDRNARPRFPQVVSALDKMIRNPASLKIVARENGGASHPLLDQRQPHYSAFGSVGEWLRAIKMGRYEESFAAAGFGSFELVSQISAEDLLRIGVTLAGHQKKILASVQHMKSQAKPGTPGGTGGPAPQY

FLT3 = biological target: T2, FLT3 (Homo sapiens, UniProt P36888); assay: biochemical; conditions: read-out: Percent control
T2 sequence (P36888 27-993): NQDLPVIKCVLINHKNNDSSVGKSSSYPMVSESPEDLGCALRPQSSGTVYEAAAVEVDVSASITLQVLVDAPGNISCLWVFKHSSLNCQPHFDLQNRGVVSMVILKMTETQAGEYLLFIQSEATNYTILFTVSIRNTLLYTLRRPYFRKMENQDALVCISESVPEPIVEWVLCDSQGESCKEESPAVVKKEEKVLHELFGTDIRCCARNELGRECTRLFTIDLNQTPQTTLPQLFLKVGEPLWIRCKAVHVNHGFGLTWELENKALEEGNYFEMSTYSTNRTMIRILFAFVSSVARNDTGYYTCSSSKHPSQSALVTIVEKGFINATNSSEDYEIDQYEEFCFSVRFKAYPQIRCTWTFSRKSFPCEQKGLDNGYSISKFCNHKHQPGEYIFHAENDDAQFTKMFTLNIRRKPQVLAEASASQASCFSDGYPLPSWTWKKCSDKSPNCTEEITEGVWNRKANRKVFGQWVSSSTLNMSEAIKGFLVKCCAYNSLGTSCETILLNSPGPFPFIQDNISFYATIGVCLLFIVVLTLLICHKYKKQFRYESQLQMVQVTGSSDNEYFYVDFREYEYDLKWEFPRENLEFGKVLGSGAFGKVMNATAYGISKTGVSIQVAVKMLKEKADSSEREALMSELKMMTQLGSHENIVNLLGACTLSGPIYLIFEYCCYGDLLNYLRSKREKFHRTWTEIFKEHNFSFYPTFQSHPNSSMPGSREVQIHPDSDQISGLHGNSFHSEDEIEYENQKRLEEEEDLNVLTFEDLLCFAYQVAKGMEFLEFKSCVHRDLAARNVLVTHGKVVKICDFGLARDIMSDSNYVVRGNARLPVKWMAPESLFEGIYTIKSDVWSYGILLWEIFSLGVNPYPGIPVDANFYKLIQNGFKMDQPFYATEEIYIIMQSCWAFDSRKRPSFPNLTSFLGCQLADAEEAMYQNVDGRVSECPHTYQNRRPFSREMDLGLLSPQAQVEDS

KIT = KIT (Homo sapiens, UniProt P10721); assay: biochemical; conditions: read-out: Percent control
LTK = LTK (Homo sapiens, UniProt P29376); assay: biochemical; conditions: read-out: Percent control
MET = MET (Homo sapiens, UniProt P08581); assay: biochemical; conditions: read-out: Percent control
PDGFRB = PDGFRB (Homo sapiens, UniProt P09619); assay: biochemical; conditions: read-out: Percent control
Sequence of PDGFRB (P09619 33-1106): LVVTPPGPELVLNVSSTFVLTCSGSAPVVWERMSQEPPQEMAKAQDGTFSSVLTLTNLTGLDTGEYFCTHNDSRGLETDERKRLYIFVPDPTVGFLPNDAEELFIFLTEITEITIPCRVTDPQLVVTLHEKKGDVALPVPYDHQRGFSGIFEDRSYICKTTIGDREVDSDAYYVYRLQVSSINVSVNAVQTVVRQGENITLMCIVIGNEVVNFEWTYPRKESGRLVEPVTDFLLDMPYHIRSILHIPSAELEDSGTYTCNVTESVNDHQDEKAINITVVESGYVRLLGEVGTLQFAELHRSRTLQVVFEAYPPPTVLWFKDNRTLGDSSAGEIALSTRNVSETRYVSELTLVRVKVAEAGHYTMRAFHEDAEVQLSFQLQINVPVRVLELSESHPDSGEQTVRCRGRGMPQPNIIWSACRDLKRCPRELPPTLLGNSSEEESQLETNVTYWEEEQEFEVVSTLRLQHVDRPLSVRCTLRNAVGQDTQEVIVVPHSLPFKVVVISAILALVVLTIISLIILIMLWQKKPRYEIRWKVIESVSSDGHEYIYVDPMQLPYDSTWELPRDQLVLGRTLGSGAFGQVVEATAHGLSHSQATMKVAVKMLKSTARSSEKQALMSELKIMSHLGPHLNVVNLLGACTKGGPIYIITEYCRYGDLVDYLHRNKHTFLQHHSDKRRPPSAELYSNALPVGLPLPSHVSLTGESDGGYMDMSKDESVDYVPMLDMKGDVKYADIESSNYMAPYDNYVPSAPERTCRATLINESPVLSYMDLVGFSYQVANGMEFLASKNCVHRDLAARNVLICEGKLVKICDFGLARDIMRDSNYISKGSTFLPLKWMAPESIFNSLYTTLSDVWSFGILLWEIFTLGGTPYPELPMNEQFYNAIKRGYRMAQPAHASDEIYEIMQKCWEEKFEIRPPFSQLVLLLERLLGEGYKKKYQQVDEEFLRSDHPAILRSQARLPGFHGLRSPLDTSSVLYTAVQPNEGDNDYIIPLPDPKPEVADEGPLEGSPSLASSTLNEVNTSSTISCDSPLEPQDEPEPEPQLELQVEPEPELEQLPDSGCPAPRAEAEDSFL

Sequence of MET (P08581 25-1390): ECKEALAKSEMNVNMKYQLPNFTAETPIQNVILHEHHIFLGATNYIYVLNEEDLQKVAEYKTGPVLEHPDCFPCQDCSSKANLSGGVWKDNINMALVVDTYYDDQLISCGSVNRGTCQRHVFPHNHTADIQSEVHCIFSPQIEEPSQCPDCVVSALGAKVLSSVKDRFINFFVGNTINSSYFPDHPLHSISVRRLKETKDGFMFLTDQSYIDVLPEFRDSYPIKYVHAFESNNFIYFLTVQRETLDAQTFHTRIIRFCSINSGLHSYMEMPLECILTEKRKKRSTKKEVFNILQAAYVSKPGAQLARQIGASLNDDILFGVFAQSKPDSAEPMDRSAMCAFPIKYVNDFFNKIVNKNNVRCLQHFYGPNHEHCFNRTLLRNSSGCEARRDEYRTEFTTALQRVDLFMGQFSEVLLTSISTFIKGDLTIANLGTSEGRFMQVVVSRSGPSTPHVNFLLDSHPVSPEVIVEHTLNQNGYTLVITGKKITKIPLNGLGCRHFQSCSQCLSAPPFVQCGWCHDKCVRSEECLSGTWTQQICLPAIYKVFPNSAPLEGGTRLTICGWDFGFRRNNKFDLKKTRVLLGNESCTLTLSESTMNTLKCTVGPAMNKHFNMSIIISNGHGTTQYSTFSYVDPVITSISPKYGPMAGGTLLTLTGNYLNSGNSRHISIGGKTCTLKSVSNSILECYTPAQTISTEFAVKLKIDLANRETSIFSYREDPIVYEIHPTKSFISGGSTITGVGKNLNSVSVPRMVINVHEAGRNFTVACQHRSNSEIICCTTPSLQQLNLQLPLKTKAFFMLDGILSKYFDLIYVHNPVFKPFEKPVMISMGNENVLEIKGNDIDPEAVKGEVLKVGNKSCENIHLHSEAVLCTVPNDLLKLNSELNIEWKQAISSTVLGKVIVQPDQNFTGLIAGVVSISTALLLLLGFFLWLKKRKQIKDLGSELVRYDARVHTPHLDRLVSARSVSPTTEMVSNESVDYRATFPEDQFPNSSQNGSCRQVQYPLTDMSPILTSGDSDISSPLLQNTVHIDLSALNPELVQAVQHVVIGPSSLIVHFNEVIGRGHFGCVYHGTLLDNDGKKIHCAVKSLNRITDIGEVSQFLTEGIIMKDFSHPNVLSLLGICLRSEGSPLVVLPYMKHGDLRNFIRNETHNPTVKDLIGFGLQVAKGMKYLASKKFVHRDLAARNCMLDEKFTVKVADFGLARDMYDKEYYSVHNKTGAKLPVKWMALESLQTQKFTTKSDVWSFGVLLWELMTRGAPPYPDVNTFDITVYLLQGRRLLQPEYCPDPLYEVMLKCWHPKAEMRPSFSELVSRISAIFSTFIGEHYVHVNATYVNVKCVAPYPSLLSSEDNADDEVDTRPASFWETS
Sequence of LTK (P29376 17-864): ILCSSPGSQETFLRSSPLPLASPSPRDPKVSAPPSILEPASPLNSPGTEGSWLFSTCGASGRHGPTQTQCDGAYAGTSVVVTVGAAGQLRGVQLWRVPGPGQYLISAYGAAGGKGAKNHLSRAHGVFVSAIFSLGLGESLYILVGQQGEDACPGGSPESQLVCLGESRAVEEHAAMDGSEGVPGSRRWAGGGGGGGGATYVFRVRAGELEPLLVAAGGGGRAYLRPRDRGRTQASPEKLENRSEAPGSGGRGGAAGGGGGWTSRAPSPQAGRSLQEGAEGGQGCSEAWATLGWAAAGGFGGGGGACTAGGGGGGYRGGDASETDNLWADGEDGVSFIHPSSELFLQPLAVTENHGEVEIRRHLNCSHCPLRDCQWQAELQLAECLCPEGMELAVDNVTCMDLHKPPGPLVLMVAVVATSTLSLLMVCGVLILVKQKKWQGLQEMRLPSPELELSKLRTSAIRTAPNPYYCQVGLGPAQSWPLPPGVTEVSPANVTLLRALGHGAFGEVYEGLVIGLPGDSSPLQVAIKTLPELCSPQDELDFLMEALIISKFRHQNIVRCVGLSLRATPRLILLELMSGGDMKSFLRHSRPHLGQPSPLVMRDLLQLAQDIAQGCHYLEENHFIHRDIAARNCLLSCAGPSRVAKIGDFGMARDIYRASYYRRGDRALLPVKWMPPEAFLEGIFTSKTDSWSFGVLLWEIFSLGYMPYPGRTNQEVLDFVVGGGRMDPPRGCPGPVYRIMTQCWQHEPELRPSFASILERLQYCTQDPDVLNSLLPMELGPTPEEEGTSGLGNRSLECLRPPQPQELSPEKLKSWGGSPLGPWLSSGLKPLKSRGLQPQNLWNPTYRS
Sequence of KIT (P10721 26-976): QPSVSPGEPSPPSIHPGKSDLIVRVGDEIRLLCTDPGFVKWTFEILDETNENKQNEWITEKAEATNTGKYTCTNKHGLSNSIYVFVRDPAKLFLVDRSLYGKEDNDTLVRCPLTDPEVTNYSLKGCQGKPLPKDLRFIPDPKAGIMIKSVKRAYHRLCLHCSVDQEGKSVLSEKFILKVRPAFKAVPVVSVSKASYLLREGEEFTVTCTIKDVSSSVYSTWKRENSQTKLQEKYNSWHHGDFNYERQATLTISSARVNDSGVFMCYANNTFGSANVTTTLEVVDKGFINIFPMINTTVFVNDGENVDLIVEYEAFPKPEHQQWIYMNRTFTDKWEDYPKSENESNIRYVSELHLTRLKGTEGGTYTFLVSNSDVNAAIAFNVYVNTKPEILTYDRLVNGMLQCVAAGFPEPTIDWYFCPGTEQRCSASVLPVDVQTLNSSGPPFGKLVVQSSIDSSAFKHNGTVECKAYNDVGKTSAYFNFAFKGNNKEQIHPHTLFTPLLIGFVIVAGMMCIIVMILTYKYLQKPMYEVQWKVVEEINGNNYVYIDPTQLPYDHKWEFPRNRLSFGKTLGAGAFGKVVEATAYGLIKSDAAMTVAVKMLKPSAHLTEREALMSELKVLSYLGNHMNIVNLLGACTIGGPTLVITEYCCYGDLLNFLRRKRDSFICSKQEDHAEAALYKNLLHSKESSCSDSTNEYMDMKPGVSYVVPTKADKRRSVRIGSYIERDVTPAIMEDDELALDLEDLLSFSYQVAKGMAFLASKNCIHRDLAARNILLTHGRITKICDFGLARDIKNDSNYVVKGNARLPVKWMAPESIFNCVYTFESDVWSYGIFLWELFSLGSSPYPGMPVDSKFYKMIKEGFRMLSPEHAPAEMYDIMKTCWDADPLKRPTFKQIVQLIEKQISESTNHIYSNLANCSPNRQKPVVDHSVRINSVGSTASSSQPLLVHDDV

| Structure (SMILES) | chemical stability in all conditions tested [1] | Percent control (SYK) [%] | IC50 (H1975) [µM] | remaining activity at 10 µM (EPHB4) [%] | remaining activity at 10 µM (FLT3) [%] | remaining activity at 10 µM (KIT) [%] | remaining activity at 10 µM (LTK) [%] | remaining activity at 10 µM (MET) [%] | remaining activity at 10 µM (PDGFRB) [%] |
| --- | --- | --- | --- | --- | --- | --- | --- | --- | --- |
| Cc1ccc(NC(=O)c2ccc(CN3CCN(C)CC3)cc2)cc1Nc1nccc(-c2cccnc2)[n+]1[Pt-2]1([Cl])[NH2+]C2CCCCC2[NH2+]1 (stereo not drawn) [1b, oxaliplatin-imatinib] | stable |  |  |  |  |  |  |  |  |
| C#Cc1cccc(Nc2c3cc(OCCOC)c(OCCOC)cc3nc[n+]2[Pt@SP2-2]([NH3+])([NH3+])[Cl])c1 [2a, cisplatin-erlotinib] | stable | 88 |  |  |  |  |  |  |  |
| COc1cc2c(Nc3ccc(Br)cc3F)[n+]([Pt-2]3([Cl])[NH2+]C4CCCCC4[NH2+]3)cnc2cc1OCC1CCN(C)CC1 (stereo not drawn) [3b, oxaliplatin-vandetanib] |  | 85 |  |  |  |  |  |  |  |
| C#Cc1cccc(Nc2ncnc3cc(OCCOC)c(OCCOC)cc23)c1 [Erlotinib] |  |  | 11.8 ± 3.19 | 18 | 10.7 | 14.5 | 8.2 | 27.5 | 12.3 |
| Cc1ccc(NC(=O)c2ccc(CN3CCN(C)CC3)cc2)cc1Nc1nccc(-c2cccnc2)n1 [Imatinib, reference compound] |  |  |  |  |  | 0.1 |  | 100 | 0.1 |
| COc1cc2c(Nc3ccc(Br)cc3F)ncnc2cc1OCC1CCN(C)CC1 [Vandetanib, reference compound] |  |  | 13.8 ± 2.06 | 4.9 | 7.8 |  | 5.2 |  |  |
